Measured values from publication PMC11709109, “Identification of AS1842856 as a novel small‐molecule GSK3α/β inhibitor against Tauopathy by accelerating GSK3α/β exocytosis” (Aging Cell, 2024).
pKd: −log10 of the molar value.

Columns and labels:
[1] = target: T1, GSK3α (Homo sapiens, UniProt P49840); assay: bio-layer interferometry (Octet K2, Ni-NTA); supported by CETSA in N2a lysate; assay type: binding
T1 construct: gene GSK3A; recombinant, His tag (CLOUD-CLONE RPA360Hu01)

[2] = target: T2, GSK3β (Homo sapiens, UniProt P49841); assay: as above; assay type: binding
T2 construct: gene GSK3B; recombinant, His tag (Sino Biological 10044-H07B)

T1 sequence (P49840 2-483): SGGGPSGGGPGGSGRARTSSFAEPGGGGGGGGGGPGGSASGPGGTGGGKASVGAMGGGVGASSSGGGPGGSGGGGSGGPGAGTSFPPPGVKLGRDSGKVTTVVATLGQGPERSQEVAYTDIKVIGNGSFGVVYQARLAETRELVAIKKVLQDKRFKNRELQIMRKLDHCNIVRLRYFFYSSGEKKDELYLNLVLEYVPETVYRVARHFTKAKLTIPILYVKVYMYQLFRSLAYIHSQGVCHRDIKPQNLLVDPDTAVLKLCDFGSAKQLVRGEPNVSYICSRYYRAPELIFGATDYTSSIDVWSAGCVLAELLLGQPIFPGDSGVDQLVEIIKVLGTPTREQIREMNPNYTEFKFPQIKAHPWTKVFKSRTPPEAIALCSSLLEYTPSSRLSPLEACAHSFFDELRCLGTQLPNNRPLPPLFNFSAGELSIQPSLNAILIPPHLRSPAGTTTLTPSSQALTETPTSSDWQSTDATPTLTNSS

## CCn1cc(C(=O)O)c(=O)c2c(N)c(F)c(NC3CCCCC3)cc21 [AS, AS1842856]
[1]
  pKd: 4.80
[2]
  pKd: 4.39
